Each structure is given as a SMILES string. “And” between values parts separate entries of the source, which are not always exact repeats. Identical values can stand only once. Peptide text beside a SMILES is read from it.

The results in this text go back to US20140349943A1, “TOPICAL FORMULATIONS OF CHEMERIN C15 PEPTIDES FOR THE TREATMENT OF DERMATOLOGICAL CONDITIONS” (priority 2011, published 2014).

In one data set the test system is mice. As to the kind of experiment: Contact hypersensitivity assay. The format is in vivo, mouse. As to conditions: TNCB hapten; ear thickness; expected. The procedure: In this example, the therapeutic activity of a human chemerin C15 peptide is tested in a contact hypersensitivity assay, which is an in vivo assay of cell-mediated immune function and a model for human allergic contact dermatitis. In this assay, epidermal cells are exposed to exogenous haptens which results in a delayed-type hypersensitive reaction that can be measured and quantified. The Langerhans cell, which is an Ia^+, bone marrow-derived, epidermal cell, initiates sensitization to haptens by presenting antigens to CD4-bearing T lymphocytes, which, in turn, secrete lymphokines and recruit other cells to the site of the reaction.
Contact hypersensitivity consists of the afferent or initial sensitizing phase, and the efferent or elicitation phase. During the efferent phase, when epidermal cells encounter a particular antigen to which they have previously been exposed, localized swelling occurs (in rodents) and in humans results in eczema of the skin.
In an exemplary protocol, mice are shaved and the skin of their abdomens exposed to a hapten. After 6 days (the afferent phase), the baseline ear thickness is measured prior to initiation of the efferent phase. Finally, the ear is treated epicutaneously with the hapten solution and ear thickness is measured at approximately 24 hr. […]

Data set [1] in a line: Franz diffusion cell skin penetration, C15 ointment. The format is in vitro ADME, human. The procedure:
The objective of the study was to determine whether human chemerin C15 peptide would diffuse through in vitro human skin maintained under flow-through conditions in Franz cells where the C15 peptide is administered as an ointment. Human chemerin C15 peptide was prepared as an ointment as described in Example 4. A 10% solution of the C15 ointment was prepare immediately prior to skin application. […] human skin obtained from abdominoplasty was maintained in tissue media and antibiotics and used within 3 days.
A standard Franz diffusion cell (LGA, Berkeley, Calif.) was used under static conditions (n=3). Approximately 200 μl of the 10% ointment solution was transferred to the surface of the skin and distributed on the surface by spatula. A thin liner was then applied for light pressure to the skin surface for 5 min after which the diffusion cell was occluded and maintained for 24 hours. After this time, the ointment was recovered by scraping a spatula over the skin surface and transferring the retained material to a 50/50 water-chloroform solution. The epidermis and dermis were then separated by heat and the epidermis extracted with a 50/50 water-chloroform solution. The epidermis was then transferred to a second tube and homogenized in PBS containing 0.1% protease inhibitor. The dermis was minced and homogenized in PBS containing 0.1% protease inhibitor. The receptor fluid was recovered and concentrated under vacuum. Ointment without C15 was applied to skin and the skin sampled in the same manner as a control (n=2).
C15 recovery from the dosing material, epidermis, and receptor fluid was determined by HPLC. C15 concentration in the dermis was determine by LC/MS. The skin surface and epidermis recoveries and epidermis homogenate samples were analyzed using the following reversed phase HPLC conditions:
The dermis samples were analyzed using the following LC/MS/MS conditions: […]

The nature of data set [2]: Franz cell skin penetration, C15 in 50% DMSO in water. The format is in vitro ADME, human. The source says: The objective of the study was to determine whether human C15 peptide would diffuse through in vitro human skin maintained under flow-through conditions in Franz cells with 50% DMSO in water. 50% DMSO is considered an acceptable maximum for penetration enhancement.
The samples used in the study were mouse and human chemerin C15 peptides stored at −20 C°. The skin sample used was human skin obtained from mammoplasty. A frozen sample was stored at −20 C.° for 30 days. A fresh sample was obtained in tissue media and antibiotics and used within 3 days.
1. A 1% solution of mouse C15 in 50% DMSO in water was applied to previously frozen human skin to develop the HPLC method for subsequent tests with human C15. This was done in triplicate. 2. A 2% solution of human C15 in 50% DMSO in water was applied to fresh human skin and epidermis, dermis, and receptor fluid were analyzed for C15.
Skin was rinsed, blotted dry, cut into circular pieces and conditioned in the Franz cell for 2 hours prior to C15 application. Flow-through, water-jacketed diffusion cells that exposed a skin area of 2.54 cm2 were used. The cells were maintained at 37° C., operated under static conditions and stirred at 700 rpm for 24 hr. PBS (pH=7.0) was used as the receptor fluid. C15 solutions in 50% DMSO in water was prepared on the day of the experiments.
400 μl of each C15 solution was pipetted in aliquots of 100 μl onto the skin surface and the diffusion cell sealed with parafilm. Diffusion cells were run in triplicate with a single control consisting of skin treated with vehicle only. Receptor fluid (≈5 mL) was collected at the end of 24 hours and concentrated by evaporation prior to analysis. The skin was blotted dry, tape-stripped three times to remove residual C15 and heat-separated at 50° C. into epidermis and dermis. Epidermis was sonicated in 5% TCA for 10 minutes and the supernatant analyzed. Dermis was minced and homogenized in 5% TCA and the supernatant concentrated and analyzed.
For the mouse C15 experiment only the receptor fluid was analyzed.
A reverse-phase HPLC method was developed to quantify Human C15 (Shimamura et al., 2009). The separation was achieved using a Phenomenex Gemini™ C18 column (Cat. No. 00B-4439-E0, 4.6×50 mm, 3 μm) at 40° C. in the Shimadzu 20A system. The mobile phase was mixed with (A) 0.1% formic in water and (B) 0.1% formic acid in acetonitrile. The separation was conducted using a gradient system of 80% A+20% B to 10% A+90% B (0-3 min) and 10% A+90% B (3-3.5 min) at a flow rate of 0.8 ml/min. The injection volume was 5 μl. The eluent was monitored at 275 nm Human C15 was observed as a single peak in the chromatogram with retention time at about 1.8 min. The quantification of Human C15 was achieved by external standard calibration. […]

[3] abbreviates: ointment, 24 hours, listed as C15.
[4] abbreviates: 2% human C15 in 50% DMSO, fresh human skin, % absorbed of the applied dose, listed as C15.

With `C[C@H](N)C(=O)NCC(=O)N[C@@H](CCC(=O)O)C(=O)N[C@@H](CC(=O)O)C(=O)N1CCC[C@H]1C(=O)N[C@@H](Cc1c[nH]cn1)C(=O)N[C@@H](CO)C(=O)N[C@@H](Cc1ccccc1)C(=O)N[C@@H](Cc1ccc(O)cc1)C(=O)N[C@@H](Cc1ccccc1)C(=O)N1CCC[C@H]1C(=O)NCC(=O)N[C@@H](CCC(N)=O)C(=O)N[C@@H](Cc1ccccc1)C(=O)N[C@@H](C)C(=O)O` [C15 (human)] (H-AGEDPHSFYFPGQFA-OH; N-terminus and C-terminus assumed), the “allergic response (contact hypersensitivity)” value in the data set on mice is “prevention, suppression and/or treatment of the allergic response”. Besides, the “[C15] in Receptor Fluid (5 mL)” value in data set [1] (Ointment, fresh human skin, after 24 hrs) is listed as below 10 nM. In addition, the recovery at 24 h in data set [1] (female, human, ointment, 24 hours, mass balance, read-out: Total % recovery) was 104%. The “epidermis and dermis combined, share of the applied dose” value in data set [1] (ointment) is on record as below 1%. Moreover, the “Receptor fluid, C15” value in data set [1] (ointment, 24 hours, HPLC LLQ 150 ng/ml) is on record as “<LLQ”. In data set [1] (setting [3]), the “Dermis homogenate, % of applied” value was 0.00% and 0.02% and 0.12%; the “Epidermis, % of applied” value is 70.2% and 64.1% and 71.2%; the “Epidermis, C15” value is 1.53 mg and 2.25 mg and 1.45 mg; the “Skin Surface, % of applied” value was 33.6% and 33.3% and 40.6%. Also, in data set [1] (setting [3]), the “Skin Surface, C15 recovered” value was 0.74 mg and 1.17 mg and 0.83 mg. The Total % recovery in data set [1] (ointment, 24 hours, mass balance, listed as C15) is 97.4% and 111.8%. In data set [2] (setting [4]), the “% C15 in skin compartment, epidermis” value was 8.76% and 7.38% and 2.67%; the “% C15 in skin compartment, receptor fluid” value was 0.02% and 0.09% and 0.01%. Besides, the “penetration through human skin, in words” value in data set [2] (in vitro flow-through conditions, 50% DMSO in water) is given as “does penetrate through human skin”.

`CC(C)C[C@H](NC(=O)[C@H](Cc1ccccc1)NC(=O)[C@H](Cc1ccc(O)cc1)NC(=O)CNC(=O)[C@H](Cc1c[nH]cn1)NC(=O)[C@@H]1CCCN1C(=O)[C@H](CC(=O)O)NC(=O)[C@H](CCC(=O)O)NC(=O)CNC(=O)[C@H](C)N)C(=O)N1CCC[C@H]1C(=O)NCC(=O)N[C@@H](CCC(N)=O)C(=O)N[C@@H](Cc1ccccc1)C(=O)N[C@@H](C)C(=O)O` [mC15] (H-AGEDPHGYFLPGQFA-OH; N-terminus and C-terminus assumed): the “C15 receptor fluid level” value in data set [2] (1% mouse C15 in 50% DMSO, frozen human skin) was found to be 0.3%.
